One data set deals with T1, TYK2 (Homo sapiens, UniProt P29597).
T1 construct: purchased Carna Biosciences
In words: Lance Ultra Kinase Assay, recombinant TYK2. It is filed as biochemical. Conditions: 5 mM ATP. A digest of the protocol:
(§1)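 Each recombinant kinase preincubated with or without compound 15 min at room temperature, then reaction started with 5 mM ATP and substrate peptide for 60 min. Stopped with EDTA-containing detection mix; TR-FRET read at ex 320 nm, 665/615 nm emission ratio taken as kinase activity.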

A short description of data set [1]: Metabolic stability in rat hepatocytes. It counts as in vitro ADME. Conditions: 1 μM compound, male rat hepatocytes.
A further data set deals with phosphorylation of STAT6. In words: Cellular p-STAT6 assay, IL-13 stimulated THP-1 cells, flow cytometry. It is filed as cell-based. To be noted: Homo sapiens, THP-1, THP-1 cells, IL-13 10 ng/ml; read-out: pSTAT6 IC50. In short, it runs like this:
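THP-1 cells (2×10^5/well, RPMI1640 + 10% FBS) preincubated 60 min at room temperature with compound (1 μM to 0.3 nM), then stimulated 30 min with IL-13 at 10 ng/ml. Fixed, methanol-permeabilized cells stained with PE anti-pSTAT6 and read by flow cytometry; IC50 from dose-response curves.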
(In flow cytometry, cells or beads pass a laser one at a time.)

For a further data set, the target named is T2, JAK3 (Homo sapiens, UniProt P52333).
T2 construct: purchased Carna Biosciences
T2 sequence (P52333 1-1124): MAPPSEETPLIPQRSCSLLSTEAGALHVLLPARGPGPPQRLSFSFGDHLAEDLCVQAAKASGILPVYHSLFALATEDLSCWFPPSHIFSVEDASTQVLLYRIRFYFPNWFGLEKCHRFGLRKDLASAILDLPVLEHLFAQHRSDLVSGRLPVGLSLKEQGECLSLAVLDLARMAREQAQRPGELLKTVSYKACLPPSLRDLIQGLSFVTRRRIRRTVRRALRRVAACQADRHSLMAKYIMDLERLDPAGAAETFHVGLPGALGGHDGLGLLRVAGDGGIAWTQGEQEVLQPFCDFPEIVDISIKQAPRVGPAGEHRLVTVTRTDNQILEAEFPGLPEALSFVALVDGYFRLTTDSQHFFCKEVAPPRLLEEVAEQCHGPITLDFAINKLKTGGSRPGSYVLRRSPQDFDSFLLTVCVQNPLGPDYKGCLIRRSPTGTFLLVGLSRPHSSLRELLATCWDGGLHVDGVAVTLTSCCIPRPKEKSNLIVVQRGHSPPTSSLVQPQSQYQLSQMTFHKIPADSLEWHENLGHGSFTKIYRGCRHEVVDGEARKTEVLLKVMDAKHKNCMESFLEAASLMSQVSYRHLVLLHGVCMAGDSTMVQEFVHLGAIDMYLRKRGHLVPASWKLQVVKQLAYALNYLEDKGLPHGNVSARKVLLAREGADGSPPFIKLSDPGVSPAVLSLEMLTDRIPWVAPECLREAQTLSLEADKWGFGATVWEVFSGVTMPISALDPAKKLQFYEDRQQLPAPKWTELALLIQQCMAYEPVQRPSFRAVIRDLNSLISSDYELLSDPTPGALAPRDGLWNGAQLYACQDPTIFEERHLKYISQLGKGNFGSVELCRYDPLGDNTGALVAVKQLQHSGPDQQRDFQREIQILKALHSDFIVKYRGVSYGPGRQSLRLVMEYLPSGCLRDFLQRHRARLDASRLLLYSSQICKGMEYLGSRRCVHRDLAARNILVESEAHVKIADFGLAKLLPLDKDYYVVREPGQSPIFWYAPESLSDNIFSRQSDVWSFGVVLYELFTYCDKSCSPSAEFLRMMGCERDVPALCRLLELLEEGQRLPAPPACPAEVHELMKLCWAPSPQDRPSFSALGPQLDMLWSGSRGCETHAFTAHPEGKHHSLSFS
In words: Lance Ultra Kinase Assay, recombinant JAK3. It counts as biochemical. To be noted: 5 mM ATP. A digest of the protocol: as §1

Data set [2] is described as follows: Pharmacokinetics in plasma and lung in mouse, intratracheal instillation. It counts as in vivo. To be noted: male CD1 mice. How it is done:
Lung PK of the compounds were tested via Intratracheal (IT) instillation administration in male CD1 Mice. Plasma and lung levels of test compounds and ratios thereof were determined in the following manner. Test compounds were dosed cassettely as the formulation of 0.4 mg/mL suspension of 0.5% HPMC, 0.1% Tween 80 in saline. The animal was anesthetized using 5% of isoflurane for 5 min, open its mouth and take out the tongue, the light was focused on the neck of the mouse and localize the trachea, and the syringe was inserted into the trachea while the trachea is in the open state, and the test compounds were inject into the trachea. At various time points (typically 5 min, 1, 4, 24 hours) post dosing, approximately 0.250 mL blood samples were removed via cardiac puncture and intact lungs were excised from the mice. Each blood sample was transferred into plastic micro centrifuge tubes containing K2EDTA. Blood samples were then centrifuged (Eppendorf centrifuge, 5804R) for 4 minutes at approximately 12,000 rpm at 4° C. to collect plasma. The mice will be fully exsanguinated prior to tissue collection. Lung samples will be collected at adopted time point and the whole lung were weighted and homogenized. Concentrations of test compounds in the plasma and lung samples were analyzed using a LC-MS/MS method. WinNonlin (Phoenix™) or other similar software will be used for pharmacokinetic calculations.

The target of another data set is T3, JAK2 (Homo sapiens, UniProt O60674).
T3 construct: purchased Carna Biosciences
In words: Lance Ultra Kinase Assay, recombinant JAK2. It is filed as biochemical. To be noted: 5 mM ATP. A digest of the protocol:
as §1

The next data set addresses T4, JAK1 (Homo sapiens, UniProt P23458).
T4 construct: purchased Carna Biosciences
In words: Lance Ultra Kinase Assay, recombinant JAK1. It counts as biochemical. Conditions: 5 mM ATP. A digest of the protocol:
as §1

Data set [3] can be described thus: Metabolic stability in human liver microsome. It is filed as in vitro ADME. Conditions: human, pooled human liver microsomes, pH 7.4, 1 μM compound, 1 mg/mL microsomes, NADPH.

Where only a bound is given, the exact number is not on record here.

T3 sequence (O60674 whole entry): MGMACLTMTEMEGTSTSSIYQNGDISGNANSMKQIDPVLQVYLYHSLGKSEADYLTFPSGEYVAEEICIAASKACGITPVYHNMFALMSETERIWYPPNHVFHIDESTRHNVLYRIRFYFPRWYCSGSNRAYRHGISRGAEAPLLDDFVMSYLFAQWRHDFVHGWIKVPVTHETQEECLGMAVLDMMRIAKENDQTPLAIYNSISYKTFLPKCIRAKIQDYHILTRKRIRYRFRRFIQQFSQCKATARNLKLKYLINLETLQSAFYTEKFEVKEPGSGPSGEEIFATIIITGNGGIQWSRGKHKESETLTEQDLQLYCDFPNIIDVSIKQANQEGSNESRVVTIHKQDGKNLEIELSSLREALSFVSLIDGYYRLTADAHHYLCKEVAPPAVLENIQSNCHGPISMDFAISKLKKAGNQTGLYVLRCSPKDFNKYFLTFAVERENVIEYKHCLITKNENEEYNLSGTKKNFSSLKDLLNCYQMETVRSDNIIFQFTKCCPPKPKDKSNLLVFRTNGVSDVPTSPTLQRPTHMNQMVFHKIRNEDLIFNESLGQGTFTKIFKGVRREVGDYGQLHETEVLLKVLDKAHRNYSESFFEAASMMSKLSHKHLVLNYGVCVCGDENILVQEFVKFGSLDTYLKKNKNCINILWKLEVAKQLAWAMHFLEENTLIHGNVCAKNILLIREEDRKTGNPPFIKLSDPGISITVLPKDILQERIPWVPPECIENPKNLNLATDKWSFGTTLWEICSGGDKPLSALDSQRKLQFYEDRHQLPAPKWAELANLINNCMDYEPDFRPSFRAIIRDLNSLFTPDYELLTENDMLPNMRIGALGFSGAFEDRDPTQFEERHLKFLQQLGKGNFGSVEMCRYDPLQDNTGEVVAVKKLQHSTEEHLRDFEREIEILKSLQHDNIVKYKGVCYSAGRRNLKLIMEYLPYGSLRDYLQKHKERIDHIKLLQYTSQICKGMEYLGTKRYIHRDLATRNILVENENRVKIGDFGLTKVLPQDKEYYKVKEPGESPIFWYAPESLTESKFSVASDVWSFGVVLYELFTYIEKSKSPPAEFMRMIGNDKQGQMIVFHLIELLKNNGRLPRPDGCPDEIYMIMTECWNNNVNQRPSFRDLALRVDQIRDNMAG
T4 sequence (P23458 whole entry): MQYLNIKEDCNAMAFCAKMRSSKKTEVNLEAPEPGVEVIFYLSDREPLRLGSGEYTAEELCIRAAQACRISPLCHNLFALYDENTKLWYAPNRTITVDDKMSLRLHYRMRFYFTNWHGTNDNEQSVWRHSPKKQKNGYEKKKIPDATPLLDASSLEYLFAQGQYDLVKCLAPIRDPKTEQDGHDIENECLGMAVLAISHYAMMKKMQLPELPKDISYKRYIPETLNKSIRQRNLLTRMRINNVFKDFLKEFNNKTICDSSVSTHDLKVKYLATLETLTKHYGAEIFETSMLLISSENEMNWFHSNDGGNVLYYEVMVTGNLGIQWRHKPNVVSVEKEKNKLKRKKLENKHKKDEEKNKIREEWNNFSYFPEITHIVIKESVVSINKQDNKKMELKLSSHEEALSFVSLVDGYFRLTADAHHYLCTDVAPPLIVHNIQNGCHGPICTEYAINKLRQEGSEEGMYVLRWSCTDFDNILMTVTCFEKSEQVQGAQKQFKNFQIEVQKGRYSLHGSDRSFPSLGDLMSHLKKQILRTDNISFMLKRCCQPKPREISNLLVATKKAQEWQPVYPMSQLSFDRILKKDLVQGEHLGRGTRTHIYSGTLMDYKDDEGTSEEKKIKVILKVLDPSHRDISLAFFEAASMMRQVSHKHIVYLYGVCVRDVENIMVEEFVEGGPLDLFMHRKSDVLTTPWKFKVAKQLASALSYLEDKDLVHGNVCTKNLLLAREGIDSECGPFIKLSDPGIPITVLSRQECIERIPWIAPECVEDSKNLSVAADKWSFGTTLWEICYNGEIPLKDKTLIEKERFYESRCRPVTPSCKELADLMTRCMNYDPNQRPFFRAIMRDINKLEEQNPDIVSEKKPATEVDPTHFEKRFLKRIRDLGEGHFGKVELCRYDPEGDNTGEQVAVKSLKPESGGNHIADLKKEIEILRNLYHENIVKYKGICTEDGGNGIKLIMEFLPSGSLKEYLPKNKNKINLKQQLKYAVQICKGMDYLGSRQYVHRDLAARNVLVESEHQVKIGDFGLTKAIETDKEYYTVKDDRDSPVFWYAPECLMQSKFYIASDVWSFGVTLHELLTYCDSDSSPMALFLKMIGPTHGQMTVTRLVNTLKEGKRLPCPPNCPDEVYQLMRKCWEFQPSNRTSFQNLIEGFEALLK
T1 sequence (P29597 whole entry): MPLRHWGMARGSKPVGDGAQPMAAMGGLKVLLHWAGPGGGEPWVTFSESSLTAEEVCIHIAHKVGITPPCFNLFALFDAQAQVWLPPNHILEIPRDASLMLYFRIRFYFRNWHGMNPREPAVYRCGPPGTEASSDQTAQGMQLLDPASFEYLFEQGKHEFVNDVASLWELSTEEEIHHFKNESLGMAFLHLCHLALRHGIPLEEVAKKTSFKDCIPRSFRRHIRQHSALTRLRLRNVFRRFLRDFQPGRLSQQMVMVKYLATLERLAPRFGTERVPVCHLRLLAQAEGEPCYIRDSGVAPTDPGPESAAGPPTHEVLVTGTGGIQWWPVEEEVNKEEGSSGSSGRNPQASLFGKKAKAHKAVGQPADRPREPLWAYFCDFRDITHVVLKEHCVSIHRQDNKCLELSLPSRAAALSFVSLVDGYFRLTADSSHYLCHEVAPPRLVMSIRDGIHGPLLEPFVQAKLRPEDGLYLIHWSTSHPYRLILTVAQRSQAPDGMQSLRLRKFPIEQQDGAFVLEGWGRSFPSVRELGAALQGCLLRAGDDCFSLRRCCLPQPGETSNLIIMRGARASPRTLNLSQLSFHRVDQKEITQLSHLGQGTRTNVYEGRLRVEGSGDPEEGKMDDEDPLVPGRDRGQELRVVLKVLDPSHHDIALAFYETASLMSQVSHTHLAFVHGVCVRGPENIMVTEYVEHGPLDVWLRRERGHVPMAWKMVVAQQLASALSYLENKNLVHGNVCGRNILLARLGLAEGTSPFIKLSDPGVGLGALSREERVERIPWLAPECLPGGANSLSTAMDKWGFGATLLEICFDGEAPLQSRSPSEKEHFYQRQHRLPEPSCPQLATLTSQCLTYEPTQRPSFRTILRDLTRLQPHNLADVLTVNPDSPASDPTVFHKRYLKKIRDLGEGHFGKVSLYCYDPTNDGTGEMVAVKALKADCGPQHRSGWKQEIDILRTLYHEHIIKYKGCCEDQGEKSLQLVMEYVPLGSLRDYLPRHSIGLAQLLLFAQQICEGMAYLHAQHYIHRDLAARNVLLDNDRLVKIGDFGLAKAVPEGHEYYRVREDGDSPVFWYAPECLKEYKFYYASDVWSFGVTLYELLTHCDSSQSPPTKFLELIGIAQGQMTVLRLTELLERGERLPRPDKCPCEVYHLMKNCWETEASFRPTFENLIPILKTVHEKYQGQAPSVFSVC

With `COC[C@H](C(=O)Nc1cccc2c(-c3nc(Nc4ccc(-c5cnco5)nc4)ncc3F)c[nH]c12)N1CCN(C)CC1` [Example 40, (R)-N-(3-(5-fluoro-2-((6-(oxazol-5-yl)pyridin-3-yl)amino)pyrimidin-4-yl)-1H-indol-7-yl)-3-methoxy-2-(4-methylpiperazin-1-yl)propanamide], the IC50 on TYK2 was 2510 nM; with phosphorylation of STAT6 it was 12.1 nM; at JAK3, over 10000 nM; at JAK2, 219 nM; on JAK1, 0.21 nM. Further, the “Rat Hepatocyte CLint” value in data set [1] was 36.4 μL/min/10^6 cells. Besides, in data set [2] (5 min), the “% Dose in Lung 5 min” value stood at 58.6%. The “% Dose in Lung 1 hr” value in data set [2] (1 hr) amounted to 23.0%. For the same compound, the half-life in data set [2] (mouse, lung, intratracheal instillation, read-out: Lung T1/2 (converted)) was 4.6 h. Further, in data set [2] (mouse, lung/plasma, other: intratracheal instillation, 5 min, read-out: Conc. Ratio (Lung/Plasma) 5 min), the Kp at 5 min worked out at 824. Moreover, the Kp at 1 h in data set [2] (mouse, lung/plasma, other: intratracheal instillation, 1 hr, read-out: Conc. Ratio (Lung/Plasma) 1 hr) amounted to 1440. The microsomal CLint at 1 μM in data set [3] came out at 50.4 µL/min/mg.

What is called IC50 is the point on the concentration scale where inhibition reaches its midpoint. The microsomal CLint is a measure of how fast metabolising enzymes remove a compound, apart from limits set by blood flow.

The values are drawn from patent US12606544B2, “JAK1 selective kinase inhibitor” (DIZAL (JIANGSU) PHARMACEUTICAL CO., LTD., priority 2019, dated 2026).
